Laboratory results reported in EP3095787A1, “[…] ACTIVE COMPOUNDS AS DAG-LIPASE INHIBITORS” (Universiteit Leiden, priority 2015, dated 2016).

Target: T1, FAAH (Mus musculus, UniProt O08914)
T1 construct: For gel based ABPP experiments mouse brain proteome (2.0 mg/mL, 20 µL) was preincubated; from tissue; host or cells: mouse brain proteome
T1 sequence (O08914 1-579): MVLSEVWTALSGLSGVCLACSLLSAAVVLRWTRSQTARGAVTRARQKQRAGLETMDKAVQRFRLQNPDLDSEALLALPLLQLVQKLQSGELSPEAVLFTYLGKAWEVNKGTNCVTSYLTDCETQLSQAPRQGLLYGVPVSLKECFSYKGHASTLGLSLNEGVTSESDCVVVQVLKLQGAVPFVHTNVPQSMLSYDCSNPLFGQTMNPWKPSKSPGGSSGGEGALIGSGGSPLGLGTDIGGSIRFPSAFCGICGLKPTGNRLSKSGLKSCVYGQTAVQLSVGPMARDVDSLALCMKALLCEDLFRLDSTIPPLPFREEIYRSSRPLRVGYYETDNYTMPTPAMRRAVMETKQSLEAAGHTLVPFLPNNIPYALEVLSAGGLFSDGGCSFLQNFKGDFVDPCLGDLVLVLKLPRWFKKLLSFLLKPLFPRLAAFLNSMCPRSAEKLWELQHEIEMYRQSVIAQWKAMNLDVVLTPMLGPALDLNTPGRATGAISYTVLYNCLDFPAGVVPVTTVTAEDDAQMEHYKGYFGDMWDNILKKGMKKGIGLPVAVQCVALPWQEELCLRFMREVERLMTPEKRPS
Assay: Gel based competitive ABPP selectivity assay with TAMRA-FP in mouse brain proteome (FAAH band)
Assay type: biochemical
Conditions: for FAAH ABPP (10 µm) % Eff.: 10 µM inhibitor, TAMRA-FP 500 nM, mouse brain proteome, vehicle set to 100%
Method: For gel based ABPP experiments mouse brain proteome (2.0 mg/mL, 20 µL) was preincubated for 30 min with vehicle (DMSO) or compound to be tested in 0.5 µL DMSO at rt. And subsequently treated with 500 nM (final concentration) TAMRA-FP (TAMRA-FP was bought at Thermo Fischer) for 15 minutes at rt. The reactions were quenched with 10 µL standard 3 x SDS page sample buffer. The samples were directly loaded and resolved on SDS page gel (10 % acrylamide). The gels were scanned with a ChemiDoc MP sytem (Biorad, Cy 3 settings, 605/50 filter) and analyzed using Image Lab 4.1.
The percentage effect on FAAH was determined by measuring the integrated optical intensity of the band corresponding to FAAH (∼ 63 kD for mouse) using Image lab software. This activity was corrected for the total protein loading per lane as determined by coomassie staining and imaging with a ChemiDoc™ MP sytem (Biorad) followed by determination of the integrated optical intensity per lane by using Image Lab 4.1 software. The intensity of the protein bands from the samples treated with vehicle was set to 100%. […] N/A means less than 50% probe displacement at 10 µM inhibitor concentration.

Row | FAAH labeling (up to a concentration of 10 µM, n=3) | Structure (SMILES) | FAAH ABPP (10 µm) % Eff.
1 |  | O=C(CCCCCc1ccccc1)c1nc2ncccc2o1 [Compound 1, 1-(Oxazolo[4,5-b]pyridin-2-yl)-6-phenylhexan-1-one, reference compound] | 99%
2 | did not block FAAH labeling | Cc1ccc(-c2cnc3nc(C(=O)CCCCCc4ccccc4)oc3c2)cc1 [Compound 25, 1-(6-(p-Tolyl)oxazolo[4,5-b]pyridin-2-yl)-6-phenylhexan-1-one] | N/A (N/A means less than 50% probe displacement at 10 µM inhibitor concentration)
